From US11046696B2, “Fused pyrimidine compound or salt thereof” (TAIHO PHARMACEUTICAL CO., LTD., priority 2016, dated 2021) come the findings set out here.

Each structure is given as a SMILES string.

This series can be described thus: Evaluation of stability in liver microsome. To be noted: mouse liver microsome, 1 μM, 37° C. for 30 minutes. (Microsomes from liver hold many membrane-bound enzymes, among them those of drug oxidation.)

Procedure: Solutions of the test compounds in DMSO/acetonitrile (the final concentration of each test compound was 1 μM, the final concentration of DMSO was 0.01%, and the final concentration of acetonitrile was 1%) were individually added to a liver microsome mixture solution (mouse liver microsome with a final concentration of 0.25 mg/mL, a potassium phosphate buffer with a final concentration of 100 mM, and magnesium chloride with a final concentration of 3 mM), and each mixture was pre-incubated at 37° C. for 5 minutes. […] After incubation at 37° C. for 30 minutes, a double amount of ethanol was added thereto to terminate the reaction, thereby obtaining post-reaction samples. A double amount of ethanol was added to each of the remaining mixture solutions, and a NADPH-generating system was further added thereto, thereby obtaining pre-reaction samples. The pre-reaction samples and post-reaction samples were centrifuged at 2000×g, and their supernatant was filtered through a glass filter. Each filtrate was then introduced into LC-MS/MS, and MS/MS peaks of the test compounds were detected. From the ratio of the post-reaction MS/MS peak to the pre-reaction MS/MS peak of the test compounds, the percentage of the remaining test compounds (remaining %) was calculated.

With `COCc1ccc(NC(=O)c2c(C#CCN3CCOCC3)n(C3(C)CC3)c3ncnc(N)c23)cc1F` [Example 206, 4-amino-N-(3-fluoro-4-(methoxymethyl)phenyl)-7-(1-methylcyclopropyl)-6-(3-morpholinoprop-1-yn-1-yl)-7H-pyrrolo[2,3-d]pyrimidine-5-carboxamide], the “Remaining (%)” value was 77%.

As for `COCc1ccc(NC(=O)c2c(C#Cc3cnn(C)c3)n(C3(C)CC3)c3ncnc(N)c23)cc1` [Example 90, 4-amino-N-[4-(methoxymethyl)phenyl]-6-((1-methyl-1H-pyrazol-4-yl)ethynyl)-7-(1-methylcyclopropyl)-7H-pyrrolo[2,3-d]pyrimidine-5-carboxamide], the “Remaining (%)” value is 67%.

With `COCc1ccc(NC(=O)c2c(C#Cc3ccc[nH]3)n(C3(C)CC3)c3ncnc(N)c23)cc1` [Example 161, 6-((1H-pyrrol-2-yl)ethynyl)-4-amino-N-(4-(methoxymethyl)phenyl)-7-(1-methylcyclopropyl)-7H-pyrrolo[2,3-d]pyrimidine-5-carboxamide], the “Remaining (%)” value is on record as 68%.

For the compound `COCc1ccc(NC(=O)c2c(SC)n(C3(C)CC3)c3ncnc(N)c23)cc1` [Example 133, 4-amino-N-(4-methoxymethyl)phenyl-7-(1-methylcyclopropyl)-6-(methylthio)-7H-pyrrolo[2,3-d]pyrimidine-5-carboxamide], the “Remaining (%)” value turned out to be 70%.

For `COCc1ccc(NC(=O)c2cn(C(C)(C)C)c3ncnc(N)c23)cc1` [Example 2, 4-amino-7-(tert-butyl)-N-(4-(methoxymethyl)phenyl)-7H-pyrrolo[2,3-d]pyrimidine-5-carboxamide], the “Remaining (%)” value was 64%.

Take `COCc1ccc(NC(=O)c2c(C#Cc3csc(C)n3)n(C3(C)CC3)c3ncnc(N)c23)cc1` [Example 126, 4-amino-N-(4-(methoxymethyl)phenyl)-7-(1-methylcyclopropyl)-6-((2-methylthiazol-4-yl)ethynyl)-7H-pyrrolo[2,3-d]pyrimidine-5-carboxamide]: the “Remaining (%)” value was 69%.

As to `COCc1ccc(NC(=O)c2c(OC[C@H]3CCCO3)n(C3(C)CC3)c3ncnc(N)c23)cc1` [Example 89, (R)-4-amino-N-[4-(methoxymethyl)phenyl]-7-(1-methylcyclopropyl)-6-((tetrahydrofuran-2-yl)methoxy)-7H-pyrrolo[2,3-d]pyrimidine-5-carboxamide], the “Remaining (%)” value is 69%.

As to `COCc1ccc(NC(=O)c2c(C#Cc3cnn(C)c3C)n(C3(C)CC3)c3ncnc(N)c23)cc1` [Example 182, 4-amino-6-((1,5-dimethyl-1H-pyrazol-4-yl)ethynyl)-N-(4-(methoxymethyl)phenyl)-7-(1-methylcyclopropyl)-7H-pyrrolo[2,3-d]pyrimidine-5-carboxamide], the “Remaining (%)” value was 61%.

Consider `COCc1ccc(NC(=O)c2c(OCCN3CCCC3=O)n(C3(C)CC3)c3ncnc(N)c23)cc1` [Example 136, 4-amino-N-(4-(methoxymethyl)phenyl)-7-(1-methylcyclopropyl)-6-(2-(2-oxopyrrolidin-1-yl)ethoxy)-7H-pyrrolo[2,3-d]pyrimidine-5-carboxamide], for which the “Remaining (%)” value is on record as 78%.

For the compound `COCc1ccc(NC(=O)c2c(C3=CCOCC3)n(C3(C)CC3)c3ncnc(N)c23)cc1` [Example 203, 4-amino-6-(3,6-dihydro-2H-pyran-4-yl)-N-(4-(methoxymethyl)phenyl)-7-(1-methylcyclopropyl)-7H-pyrrolo[2,3-d]pyrimidine-5-carboxamide], the “Remaining (%)” value worked out at 68%.

As for `COCc1ccc(NC(=O)c2cn(C3(CF)CC3)c3ncnc(N)c23)cc1` [Example 45, 4-amino-7-(1-(fluoromethyl)cyclopropyl)-N-(4-(methoxymethyl)phenyl)-7H-pyrrolo[2,3-d]pyrimidine-5-carboxamide], the “Remaining (%)” value was determined as 66%.

As to `COCc1ccc(NC(=O)c2c(C#Cc3cnc4ccoc4c3)n(C3(C)CC3)c3ncnc(N)c23)cc1` [Example 159, 4-amino-6-(furo[3,2-b]pyridin-6-ylethynyl)-N-(4-(methoxymethyl)phenyl)-7-(1-methylcyclopropyl)-7H-pyrrolo[2,3-d]pyrimidine-5-carboxamide], the “Remaining (%)” value was 78%.

In the case of `COCc1ccc(NC(=O)c2cn(C(C)(C)C)c3ncnc(N)c23)c(OC)c1` [Example 33, 4-amino-7-(tert-butyl)-N-(2-methoxy-4-(methoxymethyl)phenyl)-7H-pyrrolo[2,3-d]pyrimidine-5-carboxamide], the “Remaining (%)” value was found to be 57%.

Consider `CCC(O)CC#Cc1c(C(=O)Nc2ccc(COC)cc2)c2c(N)ncnc2n1C1(C)CC1` (centres unmarked) [Example 157, 4-amino-6-(4-hydroxyhex-1-yn-1-yl)-N-(4-(methoxymethyl)phenyl)-7-(1-methylcyclopropyl)-7H-pyrrolo[2,3-d]pyrimidine-5-carboxamide], for which the “Remaining (%)” value was 59%.

For `COCc1ccc(NC(=O)c2c(C#Cc3ccc4c(c3)NCCO4)n(C3(C)CC3)c3ncnc(N)c23)cc1` [Example 158, 4-amino-6-((3,4-dihydro-2H-benzo[b][1,4]oxazin-6-yl)ethynyl)-N-(4-(methoxymethyl)phenyl)-7-(1-methylcyclopropyl)-7H-pyrrolo[2,3-d]pyrimidine-5-carboxamide], the “Remaining (%)” value was 85%.

Turning to `COCc1ccc(NC(=O)c2c(C#Cc3ccccc3OC)n(C3(C)CC3)c3ncnc(N)c23)cc1` [Example 113, 4-amino-N-(4-(methoxymethyl)phenyl)-6-((2-methoxyphenyl)ethynyl)-7-(1-methylcyclopropyl)-7H-pyrrolo[2,3-d]pyrimidine-5-carboxamide], the “Remaining (%)” value is given as 79%.

With `COCc1ccc(NC(=O)c2c(-c3ccccc3)n(C3(C)CC3)c3ncnc(N)c23)cc1` [Example 154, 4-amino-N-(4-(methoxymethyl)phenyl)-7-(1-methylcyclopropyl)-6-phenyl-7H-pyrrolo[2,3-d]pyrimidine-5-carboxamide], the “Remaining (%)” value is listed as 50%.

Take `COCc1ccc(NC(=O)c2c(C#CC3(O)CCCC3)n(C3(C)CC3)c3ncnc(N)c23)cc1` [Example 131, 4-amino-6-((1-hydroxycyclopentyl)ethynyl)-N-(4-(methoxymethyl)phenyl)-7-(1-methylcyclopropyl)-7H-pyrrolo[2,3-d]pyrimidine-5-carboxamide]: the “Remaining (%)” value was 55%.

On to `COCc1ccc(NC(=O)c2c(C#CCC3CCCCC3)n(C3(C)CC3)c3ncnc(N)c23)cc1` [Example 199, 4-amino-6-(3-cyclohexylprop-1-yn-1-yl)-N-(4-(methoxymethyl)phenyl)-7-(1-methylcyclopropyl)-7H-pyrrolo[2,3-d]pyrimidine-5-carboxamide], for which the “Remaining (%)” value amounted to 80%.

As to `COCc1ccc(NC(=O)c2c(C#Cc3ccc(OC)cc3)n(C3(C)CC3)c3ncnc(N)c23)cc1` [Example 165, 4-amino-N-(4-(methoxymethyl)phenyl)-6-((4-methoxypheny)ethynyl)-7-(1-methylcyclopropyl)-7H-pyrrolo[2,3-d]pyrimidine-5-carboxamide], the “Remaining (%)” value is on record as 90%.

With `COCc1ccc(NC(=O)c2c(C#CCC3NC(=O)NC3=O)n(C3(C)CC3)c3ncnc(N)c23)cc1` (centres unmarked) [Example 156, 4-amino-6-(3-(2,5-dioxoimidazolidin-4-yl)prop-1-yn-1-yl)-N-(4-(methoxymethyl)phenyl)-7-(1-methylcyclopropyl)-7H-pyrrolo[2,3-d]pyrimidine-5-carboxamide], the “Remaining (%)” value is reported as 67%.

`CCc1c(C(=O)Nc2ccc(COC)cc2)c2c(N)ncnc2n1C1(C)CC1` [Example 207, 4-amino-6-ethyl-N-(4-(methoxymethyl)phenyl)-7-(1-methylcyclopropyl)-7H-pyrrolo[2,3-d]pyrimidine-5-carboxamide]: the “Remaining (%)” value was 72%.

As to `COCc1ccc(NC(=O)c2c(-c3ccc(CO)cc3)n(C3(C)CC3)c3ncnc(N)c23)cc1` [Example 145, 4-amino-6-(4-(hydroxymethyl)phenyl)-N-(4-(methoxymethyl)phenyl)-7-(1-methylcyclopropyl)-7H-pyrrolo[2,3-d]pyrimidine-5-carboxamide], the “Remaining (%)” value amounted to 72%.

Take `COCc1ccc(NC(=O)c2c(C#Cc3cccs3)n(C3(C)CC3)c3ncnc(N)c23)cc1` [Example 119, 4-amino-N-(4-(methoxymethyl)phenyl)-7-(1-methylcyclopropyl)-6-(thiophen-2-ylethynyl)-7H-pyrrolo[2,3-d]pyrimidine-5-carboxamide]: the “Remaining (%)” value is on record as 70%.

Consider `COCc1ccc(NC(=O)c2c(C#CC3CCOCC3)n(C3(C)CC3)c3ncnc(N)c23)cc1F` [Example 205, 4-amino-N-(3-fluoro-4-(methoxymethyl)phenyl)-7-(1-methylcyclopropyl)-6-((tetrahydro-2H-pyran-4-yl)ethynyl)-7H-pyrrolo[2,3-d]pyrimidine-5-carboxamide], for which the “Remaining (%)” value is 58%.

For `COCc1ccc(NC(=O)c2c(C#Cc3cncs3)n(C3(C)CC3)c3ncnc(N)c23)cc1` [Example 193, 4-amino-N-[4-(methoxymethyl)phenyl]-7-(1-methylcyclopropyl)-6-(thiazol-5-ylethynyl)-7H-pyrrolo[2,3-d]pyrimidine-5-carboxamide], the “Remaining (%)” value turned out to be 51%.

As to `COCc1ccc(NC(=O)c2cn(C3(C)CC3)c3ncnc(N)c23)cc1F` [Example 48, 4-amino-N-(3-fluoro-4-(methoxymethyl)phenyl)-7-(1-methylcyclopropyl)-7H-pyrrolo[2,3-d]pyrimidine-5-carboxamide], the “Remaining (%)” value turned out to be 58%.

For the compound `COCc1ccc(NC(=O)c2c(C#CCC(C)O)n(C3(C)CC3)c3ncnc(N)c23)cc1` (centres unmarked) [Example 188, 4-amino-6-(4-hydroxypent-1-yn-1-yl)-N-(4-(methoxymethyl)phenyl)-7-(1-methylcyclopropyl)-7H-pyrrolo[2,3-d]pyrimidine-5-carboxamide], the “Remaining (%)” value amounted to 68%.

As for `COCc1ccc(NC(=O)c2c(C#Cc3ccn[nH]3)n(C3(C)CC3)c3ncnc(N)c23)cc1` [Example 129, 6-((1H-pyrazol-5-yl)ethynyl)-4-amino-N-(4-(methoxymethyl)phenyl)-7-(1-methylcyclopropyl)-7H-pyrrolo[2,3-d]pyrimidine-5-carboxamide], the “Remaining (%)” value is reported as 54%.
